Measurements taken from US12569508B2, “Antimicrobial compositions and methods of use” (priority 2020, dated 2026).

Assays:
[1] = Deposition efficiency after nebulisation (Aerogen Pro vibrating mesh nebuliser); type: physicochemical; details: 100 μL nebulised into 24-well plate
Method: The Aerogen® Pro (vibrating mesh nebuliser) connected to a nebuliser chamber was used to aerosolise unformulated solutions of TOB, and LCNPs loaded with TOB. The nebulisation chamber fitted into the well of a 24-well plate, ensuring the dose was deposited into a single well. Before use, the nebuliser was rinsed twice with 0.9% NaCl. Then each formulation of TOB was tested to ensure an even aerosol was produced. 100 μL of TOB as an unformulated solution, and in MO-LCNPs and PHY-LCNPs was nebulised into the wells of a 24-well plate that contained 200 μL of 0.9% sodium chloride. The total drug concentration was then determined from each well to calculate the total mass deposited. […] The nebulised samples were assessed for particle size and zeta potential, as described above.
For the nebulisation samples and transport studies (see below), TOB was quantified by liquid chromatography tandem mass spectrometry (LC-MS) using a Dionex UltiMate 3000 Binary Rapid Separation LC System (Thermo Scientific, USA) coupled with a TSQ Quantum Access Max (QQQ, Thermo Scientific, USA) and a modified ion-pairing method. […] 3 μL of the samples were injected and quantification was done by ESI+ and the SRM of the ion 468.184→323.960.

[2] = system: PAO1 biofilm (72 h, transferred); test: Transferred biofilm model; type: cell-based, P. aeruginosa; details: 15 μg/mL TOB; 0.05 mg/mL MO-LCNPs; 24 h
Method: Taking into account the toxicity data of the MO-LCNPs, additional biofilm activity studies were conducted to ensure a non-toxic concentration of MO-LCNPs maintained the activity of TOB in the MBEC Assay® PAO1 biofilm model. A variation in this biofilm model was employed to contrast the effect of the MO-LCNPs compared to the standard, MBEC® model. Briefly, from an overnight culture, PAO1 was diluted in M63 media to an OD of 0.01 in 500 μL in 24 well plates and incubated for 72 h at 37° C. to form biofilms. Breath seals were used to permit gas exchange during the 72 h incubation period. The 72 h biofilms were then washed with 200 μL PBS to remove planktonic bacteria. Then, using 500 μL of M63 buffer, the biofilms was scraped off from the bottom of the 24-well plate using a 1 mL pipette tip and transferred into a fresh plate. This formed microcolonies of biofilm that closely resembles the clinical environment. The treatments were then added on top of the biofilms and incubated for a further 24 h at 37° C. The treatments included 15 μg/mL of an unformulated TOB solution and TOB loaded in the MO-LCNPs
The amount of Pluronic F-127 in the MO-LCNPs TOB formulation was also varied to determine the effect the surface stabiliser had on the antimicrobial effect. […]

[3] = Tobramycin transport across CFBE41o− infected with PAO1 biofilm; type: in vitro ADME, human; details: human; nebulised; biofilm and epithelium monolayer; read-out: Papp of TOB
Method: (§1) To assess the activity and toxicity or formulations, the CFBE41o− cell line was seeded on Transwell® inserts (0.05×10^6) at the liquid-liquid interface (500 μL apical and 1500 μL basolateral) on day 0. On day 3, the apical side media was removed, and the basolateral side was replaced with 500 μL of media. On day 7, the transepithelial electrical resistance (TEER) was measured through adding 500 μL to the apical chamber of one well and replacing the basolateral side with 1500 μL. The transferred biofilm model, described above, was employed to transfer the PAO1 biofilm on top of the CFBE41o− cell line in the apical compartment of the Transwells® on day 7. After 1 h incubation, the supernatant was removed as the biofilm has settled onto the cells.
(§2) Using the Aerogen® Pro (vibrating mesh nebuliser) and nebulisation chamber, the treatments were then nebulised on top of the biofilm and CFBE41o− cell layer. […]
(§3) After TOB treatments were nebulised, at 5, 15, 30, 60, 120, 240 and 1440 minutes, 100 μL sample was taken from the basolateral compartment and replaced with fresh MEM media. The sample was then filtered through 4 mm Millex® syringe filters before LC-MS/MS analysis, as described above, to quantify the transport of TOB.

[4] = system: CFBE41o− infected with PAO1 biofilm; test: as above; type: in vitro ADME, human; details: peak at 2.5 h after nebulisation
Method: as §1, §2, §3

CFBE41o− = type: cell-based, human
Method: Cell viability was assessed through taking the contents of the basolateral compartment media and reacting it with a Cytotoxicity Detection Kit (LDH) (Roche) to determine the amount of LDH released. 200 μL of the basolateral media was taken and centrifuged at 300×g for 10 mins. 100 μL of the supernatant was mixed with 100 μL of the reaction solution, as per manufacturer's instructions. LDH release was measured after 5-minute incubation at room temperature using a plate reader at an absorbance of 492 nm.

[5] = aerosolised, CF patients; cited from earlier work

NC[C@H]1O[C@H](O[C@H]2[C@H](O)[C@@H](O[C@H]3O[C@H](CO)[C@@H](O)[C@H](N)[C@H]3O)[C@H](N)C[C@@H]2N)[C@H](N)C[C@@H]1O [unformulated TOB, tobramycin]
deposition efficiency of TOB [1]: 3.25% | reduction in PAO1 load [2]: two | Papp at 1440 min, 3.32 mg/mL [3]: 1.91 ×10⁻⁶ cm/s | TOB reaching the basolateral compartment [4]: 15.8% | epithelium cell monolayer viability (CFBE41o−): maintained the epithelium cell monolayer viability | cell viability of the epithelium monolayer (CFBE41o−; human, 24 h): above 80% | bioavailability [5]: 9.13%
